For 1 compound, mass density results are on record in the NIST ThermoML archive (doi:10.1016/j.jct.2009.06.014).

This series in a line: xn = mol fraction of the nth substance listed. The following applies: 101 kPa, Liquid, Vibrating tube method, x1 = 1.

Each structure is given as a SMILES string. ± gives the expanded uncertainty stated by the source.

The term mass density denotes the mass of a sample divided by its volume. Regarding `O` [water] + C1CCOC1, the mass density runs as follows: (323.15 K) 988.02 ± 0.2 kg/m3; (328.15 K) 985.68 ± 0.21 kg/m3; (333.15 K) 983.17 ± 0.21 kg/m3.
